Test [1] relates to HCT116 WT cells. Put plainly: HCT116 WT cell line proliferation (CellTiter-Glo cell viability, 6 days). The class given is cell-based. To be noted: Homo sapiens, HCT-116, 144 h, HCT116 WT (parent) cells, 6 days of treatment, CellTiter-Glo cell viability; read-out: HCT-116 WT IC50. The method in brief:
(§1)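 Isogenic HCT116 pair (both MTAP alleles knocked out vs parent) in RPMI 1640 + 10% FBS, seeded overnight at 37° C, 5% CO2, then exposed 6 days to 8- or 9-point 1:3 dilutions from 1 or 10 μM. CellTiter-Glo luminescence; IC50 from sigmoidal fit, Hill slope fixed −1, top 100%, or 4-parameter logistic.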
A general note: ATP-based viability assays read luminescence as a measure of living cells.

Test [2] has as its system HCT116 MTAP null cells. Put plainly: HCT116 MTAP null cell line proliferation (CellTiter-Glo cell viability, 6 days). The note with it: HCT116-MTAP null, 144 h, HCT116 MTAP null cells, 6 days of treatment, CellTiter-Glo cell viability; read-out: HCT-116 MTAP null IC50. The class given is cell-based. The procedure, abridged: as §1

By IC50 is commonly meant the point on the concentration scale where inhibition reaches its midpoint. As to `Cn1ncc2c(N)nc3cc(F)c(C(=O)N4CC(c5ccc(C(F)(F)F)cc5)C4)cc3c21` [Example 427, (4-amino-7-fluoro-1-methyl-1H-pyrazolo[4,3-c]quinolin-8-yl)(3-(4-(trifluoromethyl)phenyl)-1-azetidinyl)methanone], the IC50 in test [1] was determined as 2540 nM; in test [2] it was 40 nM.

Turning to `Cn1ncc2c(N)nc3cc(F)c(C(=O)N4CC(c5ccc(C(F)(F)F)cn5)C4)cc3c21` [Example 428, (4-amino-7-fluoro-1-methyl-1H-pyrazolo[4,3-c]quinolin-8-yl)(3-(5-(trifluoromethyl)-2-pyridinyl)-1-azetidinyl)methanone], the IC50 worked out at 8400 nM in test [1] and 74 nM in test [2].

With `Nc1nc2cc(F)c(C(=O)N3CC(O)(c4ccc(C(F)(F)F)cc4)C3)cc2c2c1COC2` [Example 429, (4-amino-7-fluoro-1,3-dihydrofuro[3,4-c]quinolin-8-yl)(3-hydroxy-3-(4-(trifluoromethyl)phenyl)-1-azetidinyl)methanone], the IC50 in test [1] amounted to 20600 nM; in test [2] it was 382 nM.

`Nc1nc2cc(Cl)c(C(=O)N3CC(c4ccc(C(F)(F)F)cc4)C3)cc2c2c1COC2` [Example 430, (4-amino-7-chloro-1,3-dihydrofuro[3,4-c]quinolin-8-yl)(3-(4-(trifluoromethyl)phenyl)-1-azetidinyl)methanone]: the IC50 in test [1] was 12600 nM; in test [2] it was 445 nM.

In the case of `C[C@H]1OCc2c1c(N)nc1ccc(C(=O)N3CC[C@](O)(c4ccc(C(F)(F)F)cc4)C3)cc21` [Example 435, ((3R)-4-amino-3-methyl-1,3-dihydrofuro[3,4-c]quinolin-8-yl)((3S)-3-hydroxy-3-(4-(trifluoromethyl)phenyl)-1-pyrrolidinyl)methanone], the IC50 was 3760 nM in test [1] and 251 nM in test [2].

With `Cn1ncc2c(N)nc3cc(F)c(C(=O)N4CC[C@H](c5ccc(C(F)(F)F)cc5)C4)cc3c21` [Example 436, (4-amino-7-fluoro-1-methyl-1H-pyrazolo[4,3-c]quinolin-8-yl)((3R)-3-(4-(trifluoromethyl)phenyl)-1-pyrrolidinyl)methanone], the IC50 in test [1] is 1720 nM; in test [2] it was 29 nM.

Regarding `Cn1ncc2c3cc(C(=O)N4CC[C@H](c5ccc(C(F)(F)F)cc5)C4)c(F)cc3nc(N)c21` [Example 437, (4-amino-7-fluoro-3-methyl-3H-pyrazolo[3,4-c]quinolin-8-yl)((3R)-3-(4-(trifluoromethyl)phenyl)-1-pyrrolidinyl)methanone], the results for the IC50 in test [1] and in test [2] were 16000 nM and 924 nM, respectively.

`C[C@H]1OCc2c1c(N)nc1ccc(C(=O)N3CC[C@](F)(c4ccc(C(F)(F)F)cc4)C3)cc21` [Example 438, ((3R)-4-amino-3-methyl-1,3-dihydrofuro[3,4-c]quinolin-8-yl)((3S)-3-fluoro-3-(4-(trifluoromethyl)phenyl)-1-pyrrolidinyl)methanone]: the IC50 in test [1] came out at 15200 nM; in test [2] it was 878 nM.

As for `Cn1ncc2c(N)nc3cc(F)c(C(=O)N4CC(O)(c5ccc(C(F)(F)F)cc5)C4)cc3c21` [Example 439, (4-amino-7-fluoro-1-methyl-1H-pyrazolo[4,3-c]quinolin-8-yl)(3-hydroxy-3-(4-(trifluoromethyl)phenyl)-1-azetidinyl)methanone], the IC50 in test [1] came out at 887 nM; in test [2] it was 21 nM.

Regarding `Cn1ncc2c(N)nc3cc(Cl)c(C(=O)N4CC(c5ccc(C(F)(F)F)cc5)C4)cc3c21` [Example 440, (4-amino-7-chloro-1-methyl-1H-pyrazolo[4,3-c]quinolin-8-yl)(3-(4-(trifluoromethyl)phenyl)-1-azetidinyl)methanone], the IC50 was determined as 602 nM in test [1] and 14 nM in test [2].

As for `Cn1ncc2c(N)nc3cc(Cl)c(C(=O)N4CC(c5ccc(C(F)(F)F)cn5)C4)cc3c21` [Example 442, (4-amino-7-chloro-1-methyl-1H-pyrazolo[4,3-c]quinolin-8-yl)(3-(5-(trifluoromethyl)-2-pyridinyl)-1-azetidinyl)methanone], the values for the IC50 in test [1] and in test [2] were 3610 nM and 40 nM, respectively.

As for `Cn1ncc2c(N)nc3cc(Cl)c(C(=O)N4CC[C@H](c5ccc(C(F)(F)F)cc5)C4)cc3c21` [Example 443, (4-amino-7-chloro-1-methyl-1H-pyrazolo[4,3-c]quinolin-8-yl)((3R)-3-(4-(trifluoromethyl)phenyl)-1-pyrrolidinyl)methanone], the IC50 was 793 nM in test [1] and 13 nM in test [2].

Consider `Cn1ncc2c(N)nc3cc(Cl)c(C(=O)N4CC(O)(c5ccc(C(F)(F)F)cc5)C4)cc3c21` [Example 444, (4-amino-7-chloro-1-methyl-1H-pyrazolo[4,3-c]quinolin-8-yl)(3-hydroxy-3-(4-(trifluoromethyl)phenyl)-1-azetidinyl)methanone], for which the IC50 was determined as 499 nM in test [1] and 18 nM in test [2].

For the compound `Cn1ncc2c(N)nc3cc(F)c(C(=O)N4C[C@@H](CO)[C@H](c5ccc(C(F)(F)F)cc5F)C4)cc3c21` [Example 446, (4-amino-7-fluoro-1-methyl-1H-pyrazolo[4,3-c]quinolin-8-yl)((3R,4S)-3-(2-fluoro-4-(trifluoromethyl)phenyl)-4-(hydroxymethyl)-1-pyrrolidinyl)methanone], the IC50 in test [1] turned out to be 240 nM; in test [2] it was 14 nM.

On to `Cn1ncc2c(N)nc3ccc(C(=O)N4CCOC[C@@H]4c4ccc(S(F)(F)(F)(F)F)cc4)cc3c21` [Example 447, (4-amino-1-methyl-1H-pyrazolo [4,3-c]quinolin-8-yl)((3S)-3-(4-(pentafluoro-lambda~6~-sulfanyl)phenyl)-4-morpholinyl)methanone], for which the IC50 in test [1] turned out to be 602 nM; in test [2], 13 nM.

With `Cn1ncc2c(N)nc3cnc(C(=O)N4CCOC[C@@H]4c4ccc(S(F)(F)(F)(F)F)cc4)cc3c21` [Example 448, (4-amino-1-methyl-1H-pyrazolo [4,3-c][1,7]naphthyridin-8-yl)((3S)-3-(4-(pentafluoro-lambda~6~-sulfanyl)phenyl)-4-morpholinyl)methanone], the IC50 in test [1] amounted to 130 nM; in test [2], 6 nM.

As to `Cn1ncc2c(N)nc3cc(Cl)c(C(=O)N4C[C@@H](CO)[C@H](c5ccc(C(F)(F)F)cc5F)C4)cc3c21` [Example 449, (4-amino-7-chloro-1-methyl-1H-pyrazolo[4,3-c]quinolin-8-yl)((3R,4S)-3-(2-fluoro-4-(trifluoromethyl)phenyl)-4-(hydroxymethyl)-1-pyrrolidinyl)methanone], the IC50 turned out to be 145 nM in test [1] and 7 nM in test [2].

Regarding `Cn1ncc2c(N)nc3cc(F)c(C(=O)N4CCOC[C@@H]4c4ccc(S(F)(F)(F)(F)F)cc4)cc3c21` [Example 450, (4-amino-7-fluoro-1-methyl-1H-pyrazolo [4,3-c]quinolin-8-yl)((3S)-3-(4-(pentafluoro-lambda~6~-sulfanyl)phenyl)-4-morpholinyl)methanone], the IC50 in test [1] was found to be 40 nM; in test [2] it was 5 nM.

With `Cn1ncc2c(N)nc3cnc(C(=O)N4CCOC[C@@H]4c4ccc(OC(F)F)nn4)cc3c21` [Example 451, (4-amino-1-methyl-1H-pyrazolo[4,3-c][1,7]naphthyridin-8-yl)((3S)-3-(6-(difluoromethoxy)-3-pyridazinyl)-4-morpholinyl)methanone], the IC50 came to 15400 nM in test [1] and 162 nM in test [2].

`Nc1nc2ccc(C(=O)N3CCOC[C@@H]3c3ccc(OC(F)(F)F)cc3)cc2c2c1COCC2` [Example 484, (5-amino-2,4-dihydro-1H-pyrano[3,4-c]quinolin-9-yl)-[(3S)-3-[4-(trifluoromethoxy)phenyl]morpholin-4-yl]methanone]: the IC50 is above 10000 nM in test [1] and 656 nM in test [2].

On to `Nc1nc2cnc(C(=O)N3CCOC[C@@H]3c3ccc(C(F)(F)F)cc3)cc2c2cnccc12` [Example 501, (5-aminopyrido[4,3-c][1,7]naphthyridin-9-yl)((3S)-3-(4-(trifluoromethyl)phenyl)-4-morpholinyl)methanone], for which the IC50 came to 689 nM in test [1] and 37 nM in test [2].

As for `Nc1nc2ccc(C(=O)N3CCOC[C@@H]3c3ccc(C(F)(F)F)cc3)cc2c2cncnc12` [Example 502, (5-aminopyrimido[4,5-c]quinolin-9-yl)((3S)-3-(4-(trifluoromethyl)phenyl)-4-morpholinyl)methanone], the IC50 worked out at 11600 nM in test [1] and 819 nM in test [2].

Turning to `Nc1nc2ccc(C(=O)N3CCOC[C@@H]3c3ccc(C(F)(F)F)cc3)cc2c2cnccc12` [Example 503, (5-aminobenzo[c][2,6]naphthyridin-9-yl)((3S)-3-(4-(trifluoromethyl)phenyl)-4-morpholinyl)methanone], the IC50 was 867 nM in test [1] and 39 nM in test [2].

Regarding `Nc1nc2cnc(C(=O)N3CCOC[C@@H]3c3ccc(C(F)(F)F)cc3)cc2c2cncnc12` [Example 504, (5-aminopyrimido[4,5-c][1,7]naphthyridin-9-yl)((3S)-3-(4-(trifluoromethyl)phenyl)-4-morpholinyl)methanone], the IC50 in test [1] stood at 6380 nM; in test [2], 810 nM.

Turning to `Nc1nc2cnc(C(=O)N3CCOC[C@@H]3c3ccc(OC(F)(F)F)cc3)cc2c2c1COC2` [Example 506, (4-amino-1,3-dihydrofuro[3,4-c][1,7]naphthyridin-8-yl)-[(3S)-3-[4-(trifluoromethoxy)phenyl]morpholin-4-yl]methanone], the IC50 amounted to 2530 nM in test [1] and 61 nM in test [2].

With `Nc1nc2ncc(C(=O)N3CCOC[C@@H]3c3ccc(OC(F)(F)F)cc3)cc2c2c1COC2` [Example 507, (4-amino-1,3-dihydrofuro[3,4-c][1,8]naphthyridin-8-yl)-[(3S)-3-[4-(trifluoromethoxy)phenyl]morpholin-4-yl]methanone], the IC50 in test [1] is above 10000 nM; in test [2] it was 843 nM.

For the origin of these results see US11845760B2, “PRMT5 inhibitors” (AMGEN INC., priority 2020, dated 2023).
